In patent US20070010671A1, “Novel quinazoline derivatives and methods of treatment related to the use thereof” (priority 2003, published 2007):

These molecules were tested against MCH receptor (Homo sapiens, UniProt Q99705) (assay: High throughput functional screening FLIPR/FDSS6000: inhibition of MCH-evoked intracellular Ca2+ changes). Conditions: class by percent of control at 10^-7 M or IC50.
Type: cell-based
Outline: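 Antagonism is measured as inhibition of the intracellular calcium rise triggered by 50 nM MCH in cells bearing a constitutively active, non-endogenous form of the receptor. Cells are dye-loaded with Fluo4-AM and exposed to compound for 3 min at 37° C before agonist addition.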

| Structure (SMILES) | class |
| --- | --- |
| CN(C)c1nc(N[C@H]2CC[C@@H](NC(=S)NCCc3ccccc3)CC2)nc2ccccc12 [compound 203] | 3 (Class 3: The value of percent of control at 10^−7 M was more than 60% or the value of IC50 was more than 200 nM.) |
| COc1ccc(NC(=S)N[C@H]2CC[C@@H](Nc3nc(N(C)C)c4ccccc4n3)CC2)cc1OC [compound 204] | 1 (Class 1: The value of percent of control at 10^−7 M was less than 40% or the value of IC50 was less than 50 nM.) |
| CCc1ccc(NC(=S)N[C@H]2CC[C@@H](Nc3nc(N(C)C)c4ccccc4n3)CC2)cc1 [compound 205] | 2 (Class 2: The value of percent of control at 10^−7 M was from 40% to 60% or the value of IC50 was from 50 nM to 200 nM.) |
| CSc1ccccc1NC(=S)N[C@H]1CC[C@@H](Nc2nc(N(C)C)c3ccccc3n2)CC1 [compound 206] | 2 (Class 2: The value of percent of control at 10^−7 M was from 40% to 60% or the value of IC50 was from 50 nM to 200 nM.) |
| CN(C)c1nc(N[C@H]2CC[C@@H](NC(=S)Nc3ccccc3OC(F)(F)F)CC2)nc2ccccc12 [compound 207, N-(cis-4-{[4-(dimethylamino)quinazolin-2-yl]amino}cyclohexyl)-N′-[2-(trifluoromethoxy)phenyl]thiourea] | 2 (Class 2: The value of percent of control at 10^−7 M was from 40% to 60% or the value of IC50 was from 50 nM to 200 nM.) |
| CN(C)c1nc(N[C@H]2CC[C@@H](NC(=S)Nc3ccccc3C(F)(F)F)CC2)nc2ccccc12 [compound 208] | 3 (Class 3: The value of percent of control at 10^−7 M was more than 60% or the value of IC50 was more than 200 nM.) |
| CN(C)c1nc(N[C@H]2CC[C@@H](NC(=S)Nc3ccc(F)c(F)c3F)CC2)nc2ccccc12 [compound 209, N-(cis-4-{[4-(dimethylamino)quinazolin-2-yl]amino}cyclohexyl)-N′-(2,3,4-trifluorophenyl)thiourea] | 2 (Class 2: The value of percent of control at 10^−7 M was from 40% to 60% or the value of IC50 was from 50 nM to 200 nM.) |
| CN(C)c1nc(N[C@H]2CC[C@@H](NC(=S)Nc3cccc(Cl)c3Cl)CC2)nc2ccccc12 [compound 210] | 3 (Class 3: The value of percent of control at 10^−7 M was more than 60% or the value of IC50 was more than 200 nM.) |
| CN(C)c1nc(N[C@H]2CC[C@@H](NC(=S)Nc3ccc(F)cc3F)CC2)nc2ccccc12 [compound 211] | 3 (Class 3: The value of percent of control at 10^−7 M was more than 60% or the value of IC50 was more than 200 nM.) |
| COc1ccc(OC)c(NC(=S)N[C@H]2CC[C@@H](Nc3nc(N(C)C)c4ccccc4n3)CC2)c1 [compound 212] | 2 (Class 2: The value of percent of control at 10^−7 M was from 40% to 60% or the value of IC50 was from 50 nM to 200 nM.) |
| CN(C)c1nc(N[C@H]2CC[C@@H](NC(=S)Nc3c(F)cccc3F)CC2)nc2ccccc12 [compound 213] | 3 (Class 3: The value of percent of control at 10^−7 M was more than 60% or the value of IC50 was more than 200 nM.) |
| CN(C)c1nc(N[C@H]2CC[C@@H](NC(=S)Nc3ccc([N+](=O)[O-])cc3Cl)CC2)nc2ccccc12 [compound 214] | 2 (Class 2: The value of percent of control at 10^−7 M was from 40% to 60% or the value of IC50 was from 50 nM to 200 nM.) |
| CN(C)c1nc(N[C@H]2CC[C@@H](NC(=S)Nc3ccccc3OC(F)F)CC2)nc2ccccc12 [compound 215] | 3 (Class 3: The value of percent of control at 10^−7 M was more than 60% or the value of IC50 was more than 200 nM.) |
| CCc1ccccc1NC(=S)N[C@H]1CC[C@@H](Nc2nc(N(C)C)c3ccccc3n2)CC1 [compound 216] | 1 (Class 1: The value of percent of control at 10^−7 M was less than 40% or the value of IC50 was less than 50 nM.) |

Same assay, conditions: class by percent of control at 10^-7 M or by IC50; read-out: class

| Structure (SMILES) | IC50 [µM] |
| --- | --- |
| CN(C)c1nc(N[C@H]2CC[C@@H](NC(=S)Nc3ccc(Cl)c(Cl)c3)CC2)nc2ccccc12 [compound 170] | > 0.2 |
| CN(C)c1nc(N[C@H]2CC[C@@H](NC(=S)Nc3c(Cl)cccc3Cl)CC2)nc2ccccc12 [compound 171] | > 0.2 |
| CCOc1ccc(NC(=S)N[C@H]2CC[C@@H](Nc3nc(N(C)C)c4ccccc4n3)CC2)cc1 [compound 172] | > 0.2 |
| CCc1cccc(C(C)C)c1NC(=S)N[C@H]1CC[C@@H](Nc2nc(N(C)C)c3ccccc3n2)CC1 [compound 173, N-(cis-4-{[4-(dimethylamino)quinazolin-2-yl]amino}cyclohexyl)-N′-(2-ethyl-6-isoprophylphenyl)thiourea] | < 0.05 |
| CN(C)c1nc(N[C@H]2CC[C@@H](NC(=S)NCc3ccco3)CC2)nc2ccccc12 [compound 174] | > 0.2 |
| CN(C)c1nc(N[C@H]2CC[C@@H](NC(=S)Nc3ccc(F)cc3)CC2)nc2ccccc12 [compound 175, N-(cis-4-{[4-(dimethylamino)quinazolin-2-yl]amino}cyclohexyl)-N′-(4-fluorophenyl)thiourea] | 0.05 to 0.2 |
| CCCCCCNC(=S)N[C@H]1CC[C@@H](Nc2nc(N(C)C)c3ccccc3n2)CC1 [compound 176, N-(cis-4-{[4-(dimethylamino)quinazolin-2-yl]amino}cyclohexyl)-N′-hexylthiourea] | 0.05 to 0.2 |
| CCC[C@H]1CC[C@H](c2ccc(NC(=S)N[C@H]3CC[C@@H](Nc4nc(N(C)C)c5ccccc5n4)CC3)cc2)CC1 [compound 177] | > 0.2 |
| CC(C)CNC(=S)N[C@H]1CC[C@@H](Nc2nc(N(C)C)c3ccccc3n2)CC1 [compound 178, N-(cis-4-{[4-(dimethylamino)quinazolin-2-yl]amino}cyclohexyl)-N′-isobutylthiourea] | 0.05 to 0.2 |
| COc1ccc(-c2ccccc2)cc1NC(=S)N[C@H]1CC[C@@H](Nc2nc(N(C)C)c3ccccc3n2)CC1 [compound 179, N-(cis-4-{[4-(dimethylamino)quinazolin-2-yl]amino}cyclohexyl)-N′-(4-methoxybiphenyl-3-yl)thiourea] | 0.05 to 0.2 |
| CN(C)c1nc(N[C@H]2CC[C@@H](NC(=S)NCc3ccc4c(c3)OCO4)CC2)nc2ccccc12 [compound 180, N-(1,3-benzodioxol-5-ylmethyl)-N′-(cis-4-{[4-(dimethylamino)quinazolin-2-yl]amino}cyclohexyl)thiourea] | 0.05 to 0.2 |
| Cc1cccc(NC(=S)N[C@H]2CC[C@@H](Nc3nc(N(C)C)c4ccccc4n3)CC2)c1 [compound 181] | > 0.2 |
| CSc1ccc(NC(=S)N[C@H]2CC[C@@H](Nc3nc(N(C)C)c4ccccc4n3)CC2)cc1 [compound 182, N-(cis-4-{[4-(dimethylamino)quinazolin-2-yl]amino}cyclohexyl)-N′-[4-(methylthio)phenyl]thiourea] | 0.05 to 0.2 |
| COc1ccc(NC(=S)N[C@H]2CC[C@@H](Nc3nc(N(C)C)c4ccccc4n3)CC2)cc1 [compound 183, N-(cis-4-{[4-(dimethylamino)quinazolin-2-yl]amino}cyclohexyl)-N′-(4-methoxyphenyl)thiourea] | 0.05 to 0.2 |
| C=C(C)CNC(=S)N[C@H]1CC[C@@H](Nc2nc(N(C)C)c3ccccc3n2)CC1 [compound 184] | > 0.2 |
| COc1ccccc1NC(=S)N[C@H]1CC[C@@H](Nc2nc(N(C)C)c3ccccc3n2)CC1 [compound 185, N-(cis-4-{[4-(dimethylamino)quinazolin-2-yl]amino}cyclohexyl)-N′-(2-methoxyphenyl)thiourea] | < 0.05 |

| Structure (SMILES) | IC50 [µM] |
| --- | --- |
| CNC(=S)N[C@H]1CC[C@@H](Nc2nc(N(C)C)c3ccccc3n2)CC1 [compound 186] | > 0.2 |
| CN(C)c1nc(N[C@H]2CC[C@@H](NC(=S)Nc3cccc4ccccc34)CC2)nc2ccccc12 [compound 187, N-(cis-4-{[4-(dimethylamino)quinazolin-2-yl]amino}cyclohexyl)-N′-1-naphthylthiourea] | < 0.05 |
| CN(C)c1nc(N[C@H]2CC[C@@H](NC(=S)Nc3cccc([N+](=O)[O-])c3)CC2)nc2ccccc12 [compound 188] | > 0.2 |
| CN(C)c1nc(N[C@H]2CC[C@@H](NC(=S)Nc3ccc([N+](=O)[O-])cc3)CC2)nc2ccccc12 [compound 189] | 0.05 to 0.2 |
| CN(C)c1nc(N[C@H]2CC[C@@H](NC(=S)NC(C)(C)CC(C)(C)C)CC2)nc2ccccc12 [compound 190] | > 0.2 |
| CN(C)c1nc(N[C@H]2CC[C@@H](NC(=S)Nc3ccccc3)CC2)nc2ccccc12 [compound 191] | > 0.2 |
| CN(C)c1nc(N[C@H]2CC[C@@H](NC(=S)Nc3c(F)c(F)c(F)c(F)c3F)CC2)nc2ccccc12 [compound 192, N-(cis-4-{[4-(dimethylamino)quinazolin-2-yl]amino}cyclohexyl)-N′-(pentafluorophenyl)thiourea] | 0.05 to 0.2 |
| CCCNC(=S)N[C@H]1CC[C@@H](Nc2nc(N(C)C)c3ccccc3n2)CC1 [compound 193, N-(cis-4-{[4-(dimethylamino)quinazolin-2-yl]amino}cyclohexyl)-N′-propylthiourea] | 0.05 to 0.2 |
| CN(C)c1nc(N[C@H]2CC[C@@H](NC(=S)Nc3cccc(C(F)(F)F)c3)CC2)nc2ccccc12 [compound 194] | > 0.2 |
| COc1cc(NC(=S)N[C@H]2CC[C@@H](Nc3nc(N(C)C)c4ccccc4n3)CC2)cc(OC)c1OC [compound 195, N-(cis-4-{[4-(dimethylamino)quinazolin-2-yl]amino}cyclohexyl)-N′-(3,4,5-trimethoxyphenyl)thiourea] | < 0.05 |
| Cc1ccc(NC(=S)N[C@H]2CC[C@@H](Nc3nc(N(C)C)c4ccccc4n3)CC2)cc1 [compound 197, N-(cis-4-{[4-(dimethylamino)quinazolin-2-yl]amino}cyclohexyl)-N′-(4-methylphenyl)thiourea] | 0.05 to 0.2 |
| Cc1ccccc1NC(=S)N[C@H]1CC[C@@H](Nc2nc(N(C)C)c3ccccc3n2)CC1 [compound 198] | > 0.2 |
| CN(C)c1nc(N[C@H]2CC[C@@H](NC(=S)NC(C)(C)C)CC2)nc2ccccc12 [compound 199] | > 0.2 |
| CN(C)c1nc(N[C@H]2CC[C@@H](NC(=S)Nc3ccccc3Br)CC2)nc2ccccc12 [compound 201] | > 0.2 |
| CN(C)c1nc(N[C@H]2CC[C@@H](NC(=S)Nc3ccccc3Cl)CC2)nc2ccccc12 [compound 202] | > 0.2 |
